Assay results taken from ChEMBL document CHEMBL2074345, “Expression cloning and characterization of a novel multispecific organic anion transporter” (J Biol Chem, 1997).

Tests used:
[1] = biological target: T1, Solute carrier family 22 member 6 (Rattus norvegicus, UniProt O35956); experiment: TP_TRANSPORTER: uptake in Xenopus laevis oocytes; type: functional, cell-based; details: oocyte
T1 sequence (O35956 whole entry): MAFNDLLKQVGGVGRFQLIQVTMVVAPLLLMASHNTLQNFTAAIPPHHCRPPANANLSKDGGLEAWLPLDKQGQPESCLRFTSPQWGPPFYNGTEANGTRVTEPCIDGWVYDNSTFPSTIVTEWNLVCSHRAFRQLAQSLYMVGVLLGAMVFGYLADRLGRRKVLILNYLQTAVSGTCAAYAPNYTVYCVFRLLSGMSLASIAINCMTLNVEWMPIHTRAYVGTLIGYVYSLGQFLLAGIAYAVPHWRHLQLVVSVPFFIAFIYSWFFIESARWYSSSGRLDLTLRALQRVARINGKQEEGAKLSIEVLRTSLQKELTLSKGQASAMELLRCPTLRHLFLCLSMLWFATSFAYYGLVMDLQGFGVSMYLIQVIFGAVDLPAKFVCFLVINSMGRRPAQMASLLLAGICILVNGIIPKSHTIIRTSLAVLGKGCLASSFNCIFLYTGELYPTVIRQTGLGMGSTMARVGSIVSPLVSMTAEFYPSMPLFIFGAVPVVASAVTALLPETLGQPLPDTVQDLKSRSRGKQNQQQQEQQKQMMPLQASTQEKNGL

[2] = biological target: T1, Solute carrier family 22 member 6; experiment: TP_TRANSPORTER: inhibition of PAH uptake (PAH: 2 uM, Valproic acid; 2000 uM) in Xenopus laevis oocytes; type: functional, cell-based, Oocyte; details: probe PAH (2 uM)
[3] = biological target: T1, Solute carrier family 22 member 6; experiment: TP_TRANSPORTER: inhibition of PAH uptake (PAH: 2 uM, Ethacrynic acid; 2000 uM) in Xenopus laevis oocytes; type: functional, cell-based, Oocyte; details: probe PAH (2 uM)
[4] = biological target: T1, Solute carrier family 22 member 6; experiment: TP_TRANSPORTER: inhibition of PAH uptake (PAH: 2 uM, Nalidixate; 2000 uM) in Xenopus laevis oocytes; type: functional, cell-based, Oocyte; details: probe PAH (2 uM)

Compound	Activity [1]	also measured
Nc1nc2c(ncn2[C@@H]2O[C@@H]3COP(=O)(O)O[C@H]3[C@H]2O)c(=O)[nH]1	substrate [+]	
O=C(O)CCC(=O)C(=O)O [ALPHA-KETOGLUTARIC ACID]	substrate [+]	
CCCC(CCC)C(=O)O [VALPROIC ACID]		inhibition at 2000 µM [2]: > 85%
C=C(CC)C(=O)c1ccc(OCC(=O)O)c(Cl)c1Cl [ETHACRYNIC ACID]		inhibition at 2000 µM [3]: > 85%
CCn1cc(C(=O)O)c(=O)c2ccc(C)nc21 [NALIDIXIC ACID]		inhibition at 2000 µM [4]: > 85%

Now from value to compound, other results behind:

Activity [1]	Compound	also measured
substrate [+]	O=c1[nH]c(=O)c2[nH]c(=O)[nH]c2[nH]1 [URIC ACID]	
is not a substrate [-]	CC[N+](CC)(CC)CC [TETRYLAMMONIUM]	
